1 compound from US12421249B2, “Inhibitors of APOL1 and methods of using same” (Vertex Pharmaceuticals Incorporated, priority 2020, dated 2025) can be followed below.

In general, IC50 refers to the concentration needed to halve the response being measured. A low value points to higher potency.

For the test, the target named is T1, APOL1 G1 (Homo sapiens, UniProt O14791, I384M/S342G).
T1 sequence (O14791 28-398 S342G/I384M): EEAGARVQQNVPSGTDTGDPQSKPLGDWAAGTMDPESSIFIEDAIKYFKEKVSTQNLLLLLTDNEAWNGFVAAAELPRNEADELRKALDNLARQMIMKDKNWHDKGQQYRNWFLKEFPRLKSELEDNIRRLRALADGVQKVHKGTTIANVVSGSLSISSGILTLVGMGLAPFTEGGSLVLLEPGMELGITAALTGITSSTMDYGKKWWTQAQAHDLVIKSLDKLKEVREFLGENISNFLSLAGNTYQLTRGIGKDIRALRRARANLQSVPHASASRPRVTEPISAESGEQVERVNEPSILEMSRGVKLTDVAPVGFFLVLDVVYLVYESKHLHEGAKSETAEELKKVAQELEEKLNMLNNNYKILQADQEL
As to the kind of experiment: MultiTox-Fluor Multiplex Cytotoxicity Assay in tet-inducible APOL1 G1 T-REx-HEK293 cells (clone G1 DC3.25). Type of test: cell-based. More on the design: expressed in transfected cells; host or cells: T-REx HEK293, pAAVS1-Puro-APOL1 G1, clone G1 DC3.25. Conditions: Multi-Tox Assay; IP50 = IC50 for cell proliferation; APOL1 variant cell line not given. The protocol: The MultiTox-Fluor Multiplex Cytotoxicity Assay is a single-reagent-addition, homogeneous, fluorescence assay that measures the number of live and dead cells simultaneously in culture wells. The assay measures cell viability and cytotoxicity by detecting two distinct protease activities. The live-cell protease activity is restricted to intact viable cells and is measured using a fluorogenic, cell-permeant peptide glycyl-phenylalanylamino fluorocoumarin (GF-AFC) substrate. The substrate enters intact cells, where it is cleaved to generate a fluorescent signal proportional to the number of living cells. […] A second, cell-impermeant, fluorogenic peptide substrate (bis-AAF-R110 Substrate) is used to measure dead-cell protease that has been released from cells that have lost membrane integrity. A ratio of dead to live cells is used to normalize data.
Briefly, the tet-inducible transgenic APOL1 T-REx-HEK293 cell lines were incubated with 50 ng/mL tet to induce APOL1 in the presence of 3-(2-(4-fluorophenyl)-1H-indol-3-yl)-N-((3S,4R)-4-hydroxy-2-oxopyrrolidin-3-yl)propenamide at […], 0.0045, 0.0015, 0.0005 μM in duplicate for 24 hours in a humidified 37° C. incubator. The MultiTox reagent was added to each well and placed back in the incubator for an additional 30 minutes. The plate was read on the EnVision plate reader. A ratio of dead to live cells was used to normalize, and data was imported, analyzed and fit using Genedata Screener (Basel, Switzerland) software. Data was normalized using percent of control, no tet (100% viability), and 50 ng/mL tet treated (0% viability), and fit using Smart Fit. The reagents, methods, and complete protocol for the MultiTox assay are described below.
Human embryonic kidney (HEK293) cell lines containing a tet-inducible expression system (T-REx™; Invitrogen, Carlsbad, CA) and Adeno-associated virus site 1 pAAVS1-Puro-APOL1 G0 or pAAVS1-Puro-APOL1 G1 or pAAVS1-Puro-APOL1 G2 Clones G0 DC2.13, G1 DC3.25, and G2 DC4.44 were grown in a T-225 flask at ˜90% confluency in cell growth media (DMEM, 10% Tet-free FBS, 2 mM L-glutamine, 100 Units/mL penicillin-streptomycin, 5 μg/mL blasticidin S HCl, 1 μg/mL puromycin dihydrochloride). Cells were washed with DPBS and then trypsinized to dissociate from the flask. Media was used to quench the trypsin, cells were then pelleted at 200 g and resuspended in fresh cell assay media (DMEM, 2% Tet-free FBS, 2 mM L-glutamine, 100 Units/mL penicillin-streptomycin). Cells were counted and diluted to 1.17×10^6 cells/mL. 20 μL of cells (23,400/well) were dispensed to every well of a 384-well Poly-D-Lysine coated plate using the Multidrop dispenser. The plates were then incubated at room temperature for one hour.
Tetracycline is needed to induce APOL1 expression. 1 mg/mL tet stock in water was diluted to 250 ng/mL (5×) in cell assay media. 60 μL of cell assay media (no tet control) was dispensed in columns 1 and 24, and 60 μL of 5× tet was dispensed in 384-PP-round bottom plate in columns 2 to 23 with the Multidrop dispenser.
Assay ready plates from the Global Compound Archive were ordered using template 384_APOL1Cell_DR10n2_50 μM_v3. Compounds were dispensed at 200 nL in DMSO. The final top concentration was 10 μM with a 10 point 3-fold dilution in duplicate in the MultiTox assay.
20 μL were transferred from the 5× tet plate to the ARP and mixed, then 5 μL of 5× tet and the compounds were transferred to the cell plate and mixed using the Bravo. The cell plate was placed in the humidified 37° C. 5% CO2 incubator for 24 hours.
The MultiTox-Fluor Multiplex Cytotoxicity Assay was performed in accordance with the manufacturer's protocol. After cells were incubated with tet and compound for 24 hours, 25 μL of 1× MultiTox reagent was added to each well using the Multidrop dispenser; the plates were placed on a plate shaker (600 rpm) for 2 minutes, then centrifuged briefly and placed back in the 37° C. incubator for 30 minutes. […]

Where only a bound is given, the exact number is not on record here.

As for `[2H]C1([2H])O[C@@]2(C[C@@H](c3cn(C)nn3)N[C@@H](C)C2)c2sc(Cl)cc2[C@]1([2H])O` [Compound 385, (2S,4S,4′S,6S)-2′-chloro-4′,5′,5′-trideuterio-2-methyl-6-(1-methyltriazol-4-yl)spiro[piperidine-4,7′-thieno[2,3-c]pyran]-4′-ol], the IC50 is less than 0.05 µM.
